# Columns and labels:
# SKMEL28 (Melanoma) = assay: SRB assay, SKMEL28; format: cell-based, human; conditions: for CC50 / GI50: Homo sapiens; for CC50: SK-MEL-28, 48 h, read-out: LC50; for GI50: SK-MEL-28; for GI50 / TGI: SKMEL28, SRB, 48 h
# Description: (§1) SRB assays were performed according to standard National Cancer Institute Guidelines. Briefly, human tumor cells from different cancer panels were seeded into 96 well plates in 100 μL (plating densities ranging from 5-40,000 cells/well depending on the doubling time of individual cell lines) in serum-containing media for twenty-four hours prior to the addition of the compounds to be assayed. After 24 hours, one plate of each cell line was fixed in situ with trichloroacetic acid (TCA). The fixed slides were used to determine the cell population for each cell line at the time of drug addition (Tz). Each compound to be tested was solubilized in DMSO and the desired concentration was then added to the medium and diluted serially 1:10 to provide a total of five or ten drug concentrations plus control (in a final volume of 200 μL). The starting dose before any dilution was 100 uM for all compounds.
# (§2) Following drug addition, each culture was incubated for forty-eight hours. The assay was terminated with the addition of cold TCA. The supernatant was discarded, and the plates were washed with tap water and air dried. Sulforhodamine B (SRB) solution was then added to each well. After staining, the bound stain was solubilized and the absorbance was read on an automated plate reader at a wavelength of 515 nm.
# (§3) Using the absorbance measurements [time zero, (Tz), control growth, (C), and test growth in the presence of drug at the ten concentration levels (Ti)], the percentage growth was calculated at each of the drug concentrations levels. Percentage growth inhibition was calculated as:
# (§4) [(Ti−Tz)/(C−Tz)]×100 for concentrations for which Ti>/=Tz
# (§5) [(Ti−Tz)/Tz]×100 for concentrations for which Ti<Tz.
# (§6) Three dose response parameters were calculated for each experimental agent. Growth inhibition of 50% (GI50) was calculated from [(Ti−Tz)/(C−Tz)]×100=50, which was the drug concentration resulting in a 50% reduction in the net protein increase (as measured by SRB staining) in control cells during the drug. The drug concentration resulting in total growth inhibition (TGI) was calculated from Ti=Tz. The LC50 (concentration of drug resulting in a 50% reduction in the measured protein at the end of the drug treatment as compared to that at the beginning) indicating a net loss of cells following treatment was calculated from [(Ti−Tz)/Tz]×100=−50.
# (§7) Values were calculated for each of these three parameters when the level of activity was reached; however, if the effect was not reached or was exceeded, the value for that parameter was expressed as greater or less than the maximum or minimum concentration tested.
# (§8) Table 4 summarizes results characterizing the effects of compound Nos. 120, 12, 61, 1, and 56 on GI50, which measures the cell growth inhibitory power of the compound, TGI, which measures cytostatic effect (TGI) and LC50, which signifies cytotoxic effect. Each of these parameters in Table 4 was calculated in a sulforhodamine B (SRB) assay, which provides a colorimetric measure of a compound's anti-cancer activity. SRB assays were performed with compounds of the invention in 22 different cell lines (shaded in light gray in Table 4), which represent nine different tumor panels (lung, melanoma, ovary, prostate, CNS, breast, pancreas colon and renal). Ouabain and digoxin were used as controls. Paclitaxel was added as a non-Na^+K^+-ATPase inhibitor control.
# A549 (Lung) = assay: SRB assay, A549; format: cell-based, human; conditions: for TGI / GI50: A549, SRB, 48 h; for CC50 / GI50: Homo sapiens; for CC50: A549, 48 h, read-out: LC50
# Description: as §1, §2, §3, §4, §5, §6, §7, §8
# OVCAR3 (Ovary) = assay: SRB assay, OVCAR3; format: cell-based, human; conditions: for CC50 / GI50: Homo sapiens; for CC50: OVCAR-3, 48 h, read-out: LC50; for GI50: OVCAR-3; for GI50 / TGI: OVCAR3, SRB, 48 h
# Description: as §1, §2, §3, §4, §5, §6, §7, §8
# MB435 (Melanoma) = assay: SRB assay, MB435; format: cell-based, human; conditions: 48 h; for CC50 / GI50: Homo sapiens; for CC50: read-out: LC50; for GI50 / TGI: MB435, SRB
# Description: as §1, §2, §3, §4, §5, §6, §7, §8
# DU145 (Prostate) = assay: SRB assay, DU145; format: cell-based, human; conditions: for TGI / GI50: DU145, SRB, 48 h; for CC50 / GI50: Homo sapiens; for CC50: DU-145, 48 h, read-out: LC50; for GI50: DU-145
# Description: as §1, §2, §3, §4, §5, §6, §7, §8
# PCJ (Prostate) = assay: SRB assay, PCJ; format: cell-based; conditions: Homo sapiens, 48 h; for CC50: read-out: LC50; for GI50 / IC (TGI): PCJ, SRB
# Description: as §1, §2, §3, §4, §5, §6, §7, §8
# ADRRES (Ovary) = assay: SRB assay, ADRRES (multidrug resistant NCI-ADR-RES); format: cell-based, human; conditions: for TGI / GI50: ADRRES; for TGI / CC50 / GI50: 48 h; for CC50 / GI50: Homo sapiens, NCI/ADR-RES; for CC50: read-out: LC50; for anti-tumor action in multidrug resistant cell line NCI-ADR-RES: cells express high levels of MDR1 and P-glycoprotein
# Description: NCI-ADR-RES cells have been classified as ovarian cancer cells by the National Cancer Institute.
# as §1, §2, §3, §4, §5, §6, §7, §8
# Table 4 also presents results with Compound Nos. 120, 12, 61, 1, and 56 in a well characterized drug resistant cell line, NCI-ADR-RES, that expresses high levels of MDR1 and P-glycoprotein.
# ERVK (Lung) = assay: SRB assay, ERVK; format: cell-based, human; conditions: 48 h; for TGI / GI50: ERVK, SRB; for CC50 / GI50: Homo sapiens; for CC50: read-out: LC50
# Description: as §1, §2, §3, §4, §5, §6, §7, §8
# OVCAR5 (Ovary) = assay: SRB assay, OVCAR5; format: cell-based, human; conditions: for CC50 / GI50: Homo sapiens; for CC50: OVCAR-5, 48 h, read-out: LC50; for GI50: OVCAR-5; for GI50 / TGI: OVCAR5, SRB, 48 h
# Description: as §1, §2, §3, §4, §5, §6, §7, §8
# CAKJ1 (Renal) = assay: SRB assay, CAKJ1; format: cell-based, human; conditions: 48 h; for TGI / GI50: CAKJ1, SRB; for CC50 / GI50: Homo sapiens; for CC50: read-out: LC50
# Description: as §1, §2, §3, §4, §5, §6, §7, §8
# SF268 (CNS) = assay: SRB assay, SF268; format: cell-based; conditions: Homo sapiens; for CC50: SF-268, 48 h, read-out: LC50; for GI50 / IC (TGI): SF-268, SF268, SRB, 48 h; for GI50: read-out: GI50; for IC (TGI): read-out: TGI
# Description: as §1, §2, §3, §4, §5, §6, §7, §8
# HCT116 (Colon) = assay: SRB assay, HCT116; format: cell-based; conditions: Homo sapiens; for CC50: HCT-116, 48 h, read-out: LC50; for GI50 / IC (TGI): HCT-116, HCT116, SRB, 48 h
# Description: as §1, §2, §3, §4, §5, §6, §7, §8
# [1] = tested on: Na+/K+-ATPase (Adenosine 5′-Triphosphatase isolated from porcine cerebral cortex); assay: Na+/K+-ATPase inhibitory activity, colorimetric Adenosine 5'-Triphosphatase Enzymatic Assay; format: biochemical; conditions: for IC50: read-out: Na+K+ ATPase inhibitory activity IC50
# Description: The inhibitory effect of a compound of the invention on ATPase activity was assessed in vitro using the colorimetric Adenosine 5′-Triphosphatase Enzymatic Assay of Sigma (St. Louis, Mo.) according to the manufacturer's instructions. This assay utilizes Adenosine 5′-Triphosphatase isolated from porcine cerebral cortex. Each reaction was performed in a final volume of 250 μl using 0.5 units/ml enzyme in the presence of different inhibitors. […] IC50 values were determined using the Origin® program software (OriginLab, Northampton, Mass.).
Compound,CC50 (SKMEL28 (Melanoma)),GI50 (SKMEL28 (Melanoma)),TGI (SKMEL28 (Melanoma)),TGI (A549 (Lung)),CC50 (A549 (Lung)),GI50 (A549 (Lung)),CC50 (OVCAR3 (Ovary)),GI50 (OVCAR3 (Ovary)),TGI (OVCAR3 (Ovary)),CC50 (MB435 (Melanoma)),GI50 (MB435 (Melanoma)),TGI (MB435 (Melanoma)),TGI (DU145 (Prostate)),CC50 (DU145 (Prostate)),GI50 (DU145 (Prostate)),CC50 (PCJ (Prostate)),GI50 (PCJ (Prostate)),IC (TGI) (PCJ (Prostate)),TGI (ADRRES (Ovary); SRB),CC50 (ADRRES (Ovary)),other results
"C[C@]12CCC(=NOCCN)CC1CCC1C2CC[C@]2(C)C(=O)CCC12 (stereo partly drawn) [Compound 1, (10S,13S)-3-(2-aminoethoxyimino)-10,13-dimethyltetradecahydro-1H-cyclopenta[a]phenanthren-17(2H)-one]",7.54 µM,0.517 µM,0.9284 µM,0.5825 µM,0.85 µM,315 nM,0.984 µM,291 nM,0.6375 µM,6.38 µM,0.599 µM,1.3995 µM,0.5882 µM,0.844 µM,332 nM,0.897 µM,253 nM,0.575 µM,0.6479 µM,0.944 µM,GI50 (ADRRES (Ovary); SRB): 321 nM; anti-tumor action in multidrug resistant cell line NCI-ADR-RES (ADRRES (Ovary); SRB): potent anti-tumor action; TGI (ERVK (Lung)): 0.6406 µM; CC50 (ERVK (Lung)): 0.943 µM; GI50 (ERVK (Lung)): 338 nM; CC50 (OVCAR5 (Ovary)): 7.33 µM; GI50 (OVCAR5 (Ovary)): 0.834 µM; TGI (OVCAR5 (Ovary)): 3.7630 µM; TGI (CAKJ1 (Renal)): 0.6430 µM; CC50 (CAKJ1 (Renal)): 0.948 µM; GI50 (CAKJ1 (Renal)): 338 nM; CC50 (SF268 (CNS)): 0.908 µM; GI50 (SF268 (CNS)): 385 nM; IC (TGI) (SF268 (CNS)): 0.647 µM; CC50 (HCT116 (Colon)): 8.11 µM; GI50 (HCT116 (Colon)): 364 nM; IC (TGI) (HCT116 (Colon)): 1.31 µM; Na+K+ ATPase inhibitory activity (in words) [1]: very potent Na+K+ ATPase inhibitors; IC50 [1]: 124 nM
"C[C@]12CCC(=NOCCN)C=C1CCC1C2CC[C@]2(C)C(=O)CCC12 (stereo partly drawn) [Compound 12, (10R,13S)-3-(2-aminoethoxyimino)-10,13-dimethyl-2,3,7,8,9,10,11,12,13,14,15,16-dodecahydro-1H-cyclopenta[a]phenanthren-17(6H)-one]",85.6 µM,8.39 µM,40.16 µM,6.90 µM,9.73 µM,4080 nM,88.8 µM,3010 nM,28.79 µM,75.8 µM,5.45 µM,10.24 µM,5.75 µM,8.45 µM,3040 nM,8.52 µM,3540 nM,6.03 µM,6.58 µM,10.1 µM,GI50 (ADRRES (Ovary); SRB): 3080 nM; GI50 in NCI-ADR-RES cells compared to non-resistant MCF-7 cells (ADRRES (Ovary); SRB): the same GI50 value; anti-tumor action in multidrug resistant cell line NCI-ADR-RES (ADRRES (Ovary); SRB): potent anti-tumor action; TGI (ERVK (Lung)): 5.13 µM; CC50 (ERVK (Lung)): 8.8 µM; GI50 (ERVK (Lung)): 1450 nM; CC50 (OVCAR5 (Ovary)): 63.6 µM; GI50 (OVCAR5 (Ovary)): 5.3 µM; TGI (OVCAR5 (Ovary)): 9.02 µM; TGI (CAKJ1 (Renal)): 6.56 µM; CC50 (CAKJ1 (Renal)): 9.44 µM; GI50 (CAKJ1 (Renal)): 3690 nM; CC50 (SF268 (CNS)): 8.51 µM; GI50 (SF268 (CNS)): 2840 nM; IC (TGI) (SF268 (CNS)): 5.67 µM; CC50 (HCT116 (Colon)): 10.7 µM; GI50 (HCT116 (Colon)): 4060 nM; IC (TGI) (HCT116 (Colon)): 7.38 µM; Na+K+ ATPase inhibitory activity (in words) [1]: strong Na+K+ ATPase inhibitory activities; IC50 [1]: 375 nM

# Source: patent publication US20120238488A1, “COMPOUNDS AND METHODS FOR TREATING NEOPLASIA” (priority 2009, published 2012)
